Experimental data from ChEMBL document CHEMBL3046886, “Action of benzimidazolo-piperazinyl derivatives on dopamine receptors” (Med Chem Res, 2013).

Key:
D(1A) dopamine receptor = D(1A) dopamine receptor (Homo sapiens, UniProt P21728); assay: Binding affinity to dopamine D1 receptor (unknown origin)
D(2) dopamine receptor [1] = molecular target: D(2) dopamine receptor (Homo sapiens, UniProt P14416); assay: Binding affinity to dopamine D2 receptor (unknown origin)
[2] = molecular target: T1, 5-hydroxytryptamine receptor 3A (Homo sapiens, UniProt P46098); assay: Binding affinity to 5-HT3 receptor (unknown origin)
T1 sequence (P46098 whole entry): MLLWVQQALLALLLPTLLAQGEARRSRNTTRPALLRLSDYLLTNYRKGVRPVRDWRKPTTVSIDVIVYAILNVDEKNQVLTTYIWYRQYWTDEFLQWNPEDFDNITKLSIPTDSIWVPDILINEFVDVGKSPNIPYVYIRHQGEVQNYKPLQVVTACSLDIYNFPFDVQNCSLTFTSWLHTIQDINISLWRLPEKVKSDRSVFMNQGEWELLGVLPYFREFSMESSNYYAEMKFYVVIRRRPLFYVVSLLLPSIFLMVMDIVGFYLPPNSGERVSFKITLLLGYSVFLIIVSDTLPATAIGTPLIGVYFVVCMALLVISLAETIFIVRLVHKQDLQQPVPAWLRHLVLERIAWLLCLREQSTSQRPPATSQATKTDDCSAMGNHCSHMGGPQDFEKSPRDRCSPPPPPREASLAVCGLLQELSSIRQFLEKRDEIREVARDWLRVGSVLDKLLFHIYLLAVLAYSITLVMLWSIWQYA

Homo sapiens = species on record: Homo sapiens; assay: Ratio of pKi for 5-HT2A receptor (unknown origin) to pKi for dopamine D2 receptor (unknown origin)
[3] = molecular target: Sodium-dependent serotonin transporter (Homo sapiens, UniProt P31645)
Sodium-dependent serotonin transporter, sequence (P31645 whole entry): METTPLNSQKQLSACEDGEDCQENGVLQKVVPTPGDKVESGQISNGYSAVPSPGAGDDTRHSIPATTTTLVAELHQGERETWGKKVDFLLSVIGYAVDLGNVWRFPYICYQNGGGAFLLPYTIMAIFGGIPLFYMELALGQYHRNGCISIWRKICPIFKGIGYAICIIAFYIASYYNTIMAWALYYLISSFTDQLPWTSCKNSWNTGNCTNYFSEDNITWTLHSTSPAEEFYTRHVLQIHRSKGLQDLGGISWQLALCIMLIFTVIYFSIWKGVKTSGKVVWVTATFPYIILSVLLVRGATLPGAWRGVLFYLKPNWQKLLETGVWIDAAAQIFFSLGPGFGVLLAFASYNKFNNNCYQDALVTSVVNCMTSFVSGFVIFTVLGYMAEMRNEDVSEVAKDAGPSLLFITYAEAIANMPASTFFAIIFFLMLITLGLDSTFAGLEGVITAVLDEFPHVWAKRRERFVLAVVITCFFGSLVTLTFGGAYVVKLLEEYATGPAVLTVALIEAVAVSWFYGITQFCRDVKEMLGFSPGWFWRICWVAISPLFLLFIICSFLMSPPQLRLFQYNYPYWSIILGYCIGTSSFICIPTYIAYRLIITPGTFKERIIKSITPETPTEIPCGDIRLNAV
Description: Inhibition of 5-HT uptake at SERT (unknown origin)

D(2) dopamine receptor [4] = molecular target: T2, D(2) dopamine receptor (Rattus norvegicus, UniProt P61169); assay: Displacement of [3H]quinpirole from high affinity agonist binding site of D2 receptor in Rattus norvegicus (rat) striatal membrane; parameters: species or system Striatum
T2 sequence (P61169 whole entry): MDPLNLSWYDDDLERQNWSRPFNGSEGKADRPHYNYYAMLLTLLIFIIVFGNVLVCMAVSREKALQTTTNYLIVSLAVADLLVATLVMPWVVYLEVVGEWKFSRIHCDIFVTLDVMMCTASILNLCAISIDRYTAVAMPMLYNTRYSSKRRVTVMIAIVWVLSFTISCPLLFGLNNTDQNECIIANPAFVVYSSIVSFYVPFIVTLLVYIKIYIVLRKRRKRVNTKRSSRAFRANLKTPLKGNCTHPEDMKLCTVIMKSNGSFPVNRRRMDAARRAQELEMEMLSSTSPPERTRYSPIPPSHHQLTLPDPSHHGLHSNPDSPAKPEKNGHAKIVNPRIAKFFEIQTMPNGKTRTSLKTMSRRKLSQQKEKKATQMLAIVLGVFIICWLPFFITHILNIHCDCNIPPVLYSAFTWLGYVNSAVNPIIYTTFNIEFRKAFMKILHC

D(3) dopamine receptor = D(3) dopamine receptor (Homo sapiens, UniProt P35462); assay: Binding affinity to Homo sapiens (human) dopamine D3 receptor
D(3) dopamine receptor, sequence (P35462 whole entry): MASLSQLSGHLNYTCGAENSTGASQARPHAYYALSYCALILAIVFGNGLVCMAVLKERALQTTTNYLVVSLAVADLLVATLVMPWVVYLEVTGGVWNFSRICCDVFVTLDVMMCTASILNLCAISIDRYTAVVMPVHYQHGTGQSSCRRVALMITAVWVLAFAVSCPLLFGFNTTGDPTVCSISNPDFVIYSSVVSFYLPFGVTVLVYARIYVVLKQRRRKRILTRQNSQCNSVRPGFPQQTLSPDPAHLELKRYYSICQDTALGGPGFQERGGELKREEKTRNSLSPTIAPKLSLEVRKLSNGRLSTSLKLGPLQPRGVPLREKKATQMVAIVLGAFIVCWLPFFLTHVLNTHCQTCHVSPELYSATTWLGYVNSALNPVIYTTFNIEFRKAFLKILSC

D(4) dopamine receptor = molecular target: T3, D(4) dopamine receptor (Homo sapiens, UniProt P21917); assay: Binding affinity to Homo sapiens (human) dopamine D4.4 receptor
T3 sequence (P21917 whole entry): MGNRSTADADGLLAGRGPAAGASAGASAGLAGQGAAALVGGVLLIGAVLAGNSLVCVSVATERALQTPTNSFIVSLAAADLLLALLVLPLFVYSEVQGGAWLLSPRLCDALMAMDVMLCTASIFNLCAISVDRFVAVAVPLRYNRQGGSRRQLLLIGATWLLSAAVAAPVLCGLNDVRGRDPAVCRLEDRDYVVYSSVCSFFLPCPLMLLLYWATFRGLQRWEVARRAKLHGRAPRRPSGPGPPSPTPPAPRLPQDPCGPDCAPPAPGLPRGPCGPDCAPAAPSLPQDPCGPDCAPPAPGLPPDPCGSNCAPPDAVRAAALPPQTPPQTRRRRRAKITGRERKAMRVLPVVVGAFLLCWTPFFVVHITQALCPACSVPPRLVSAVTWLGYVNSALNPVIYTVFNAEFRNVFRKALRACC

D(2) dopamine receptor [5] = molecular target: T2, D(2) dopamine receptor; assay: Displacement of [3H]spiperone from low affinity antagonist binding site of D2 receptor in Rattus norvegicus (rat) striatal membrane; parameters: species or system Striatum
Rattus norvegicus = species on record: Rattus norvegicus; assay: Rattus norvegicus (rat)io of Ki for low affinity antagonist binding site of D2 receptor to high affinity agonist binding site of D2 receptor in Rattus norvegicus (rat) striatal membrane; settings: Striatum
[6] = molecular target: T4, 5-hydroxytryptamine receptor 1A (Homo sapiens, UniProt P08908); assay: Binding affinity to 5-HT1A receptor (unknown origin)
T4 sequence (P08908 whole entry): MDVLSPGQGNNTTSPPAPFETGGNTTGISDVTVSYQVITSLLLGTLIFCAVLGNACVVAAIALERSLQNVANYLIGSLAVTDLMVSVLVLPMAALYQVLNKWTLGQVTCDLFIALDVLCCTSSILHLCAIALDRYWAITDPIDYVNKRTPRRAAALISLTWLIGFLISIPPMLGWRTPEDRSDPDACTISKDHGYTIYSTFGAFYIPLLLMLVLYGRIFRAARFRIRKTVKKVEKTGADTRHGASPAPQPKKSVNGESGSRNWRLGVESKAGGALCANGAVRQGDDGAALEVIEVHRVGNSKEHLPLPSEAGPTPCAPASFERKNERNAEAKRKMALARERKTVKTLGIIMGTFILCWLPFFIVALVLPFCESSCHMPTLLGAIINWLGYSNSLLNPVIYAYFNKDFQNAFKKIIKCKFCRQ

[7] = molecular target: T5, 5-hydroxytryptamine receptor 2C (Homo sapiens, UniProt P28335); assay: Binding affinity to 5-HT2C receptor (unknown origin)
T5 sequence (P28335 whole entry): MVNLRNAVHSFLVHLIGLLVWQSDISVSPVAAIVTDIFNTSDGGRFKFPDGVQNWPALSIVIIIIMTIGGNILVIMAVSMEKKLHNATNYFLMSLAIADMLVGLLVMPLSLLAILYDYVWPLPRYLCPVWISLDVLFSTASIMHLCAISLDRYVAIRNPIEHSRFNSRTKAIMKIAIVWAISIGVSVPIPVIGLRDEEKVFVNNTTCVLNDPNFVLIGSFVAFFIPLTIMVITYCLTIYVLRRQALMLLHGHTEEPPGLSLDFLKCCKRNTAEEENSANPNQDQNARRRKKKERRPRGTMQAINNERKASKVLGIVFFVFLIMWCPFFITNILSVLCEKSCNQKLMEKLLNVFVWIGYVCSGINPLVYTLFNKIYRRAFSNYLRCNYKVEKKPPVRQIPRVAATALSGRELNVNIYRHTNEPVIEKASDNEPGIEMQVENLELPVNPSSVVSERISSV

[8] = molecular target: 5-hydroxytryptamine receptor 2A (Homo sapiens, UniProt P28223)
5-hydroxytryptamine receptor 2A, sequence (P28223 whole entry): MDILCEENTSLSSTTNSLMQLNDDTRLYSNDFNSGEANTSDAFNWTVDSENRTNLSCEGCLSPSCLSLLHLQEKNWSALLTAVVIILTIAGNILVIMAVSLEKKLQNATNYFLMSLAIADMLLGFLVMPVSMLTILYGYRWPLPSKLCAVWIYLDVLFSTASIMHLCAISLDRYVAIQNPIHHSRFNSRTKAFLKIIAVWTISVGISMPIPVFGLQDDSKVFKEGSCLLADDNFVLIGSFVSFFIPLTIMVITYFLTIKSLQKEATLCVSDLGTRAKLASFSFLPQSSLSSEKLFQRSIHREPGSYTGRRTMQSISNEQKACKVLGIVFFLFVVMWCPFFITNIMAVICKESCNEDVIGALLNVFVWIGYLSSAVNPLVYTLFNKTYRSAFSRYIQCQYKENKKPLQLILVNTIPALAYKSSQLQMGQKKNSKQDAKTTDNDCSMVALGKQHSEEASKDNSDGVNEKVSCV

D(1A) dopamine receptor, sequence (P21728 whole entry): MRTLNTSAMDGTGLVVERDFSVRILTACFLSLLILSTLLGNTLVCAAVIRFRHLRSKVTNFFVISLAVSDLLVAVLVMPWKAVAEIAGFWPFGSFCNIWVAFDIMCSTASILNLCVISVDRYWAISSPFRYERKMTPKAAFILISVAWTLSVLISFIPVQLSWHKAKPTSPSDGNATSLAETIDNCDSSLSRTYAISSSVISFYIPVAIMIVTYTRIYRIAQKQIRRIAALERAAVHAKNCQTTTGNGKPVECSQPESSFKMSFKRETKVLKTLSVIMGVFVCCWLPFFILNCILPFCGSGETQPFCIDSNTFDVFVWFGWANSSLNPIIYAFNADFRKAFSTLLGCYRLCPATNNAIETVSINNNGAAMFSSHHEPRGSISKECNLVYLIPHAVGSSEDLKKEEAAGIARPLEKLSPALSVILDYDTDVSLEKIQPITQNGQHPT
D(2) dopamine receptor (Homo sapiens, UniProt P14416), sequence (P14416 whole entry): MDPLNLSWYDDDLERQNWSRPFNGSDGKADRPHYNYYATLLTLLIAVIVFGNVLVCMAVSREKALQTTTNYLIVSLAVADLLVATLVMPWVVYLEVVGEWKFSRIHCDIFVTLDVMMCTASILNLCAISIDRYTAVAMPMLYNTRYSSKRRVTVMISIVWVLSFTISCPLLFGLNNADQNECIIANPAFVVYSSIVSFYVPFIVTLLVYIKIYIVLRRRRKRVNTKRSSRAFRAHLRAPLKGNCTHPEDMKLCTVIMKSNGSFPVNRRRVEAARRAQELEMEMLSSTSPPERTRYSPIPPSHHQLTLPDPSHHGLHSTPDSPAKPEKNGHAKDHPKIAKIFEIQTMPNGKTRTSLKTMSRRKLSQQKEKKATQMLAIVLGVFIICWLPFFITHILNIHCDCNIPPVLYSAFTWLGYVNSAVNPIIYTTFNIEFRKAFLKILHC

SMILES | Ki (D(1A) dopamine receptor; read-out: Ki) [µM] | Ki (D(2) dopamine receptor [1]; read-out: Ki) [µM] | also measured
COc1ccccc1N1CCN(CCc2ccc3[nH]nnc3c2)CC1 | – | – | Ki [2]: > 10 µM; Ratio pKi (Homo sapiens): 0.83
c1ccc2c(N3CCN(CCc4ccc5[nH]nnc5c4)CC3)cccc2c1 | – | – | Ki [2]: > 10 µM; IC50 [3]: > 10 µM
FC(F)(F)c1nc2c(-[n+]3cc[n+](Cc4ccccc4)cc3)cccc2[nH]1 | – | – | Ki (D(2) dopamine receptor [4]): 0.00051 µM; Ki (D(3) dopamine receptor): 0.0147 µM; Ki (D(4) dopamine receptor): 0.0029 µM; Ki (D(2) dopamine receptor [5]): 0.0033 µM; Ratio Ki (Rattus norvegicus): 6
COc1cccc(N2CCN(CCOc3ccc4[nH]c(=O)[nH]c4c3)CC2)c1 | > 1 | 0.0448 | –
c1ccc2c(N3CCN(CCc4ccc5[nH]cnc5c4)CC3)cccc2c1 | – | – | Ki [2]: 5.25 µM; Ki (D(1A) dopamine receptor; read-out: pKi (converted)): 3.98 µM; Ki ([6]; read-out: pKi (converted)): 0.126 µM; Ki [7]: 0.0646 µM; IC50 [3]: 1.76 µM; Ki ([8]; read-out: pKi (converted)): 0.0151 µM; Ratio pKi (Homo sapiens): 0.89; Ki (D(2) dopamine receptor [1]; read-out: pKi (converted)): 0.00166 µM
COc1ccc(N2CCN(CCOc3ccc4[nH]c(=S)[nH]c4c3)CC2)cc1 | > 1 | 0.105 | –
O=[N+]([O-])c1ccc(CCN2CCN(c3ccccc3)CC2)cc1[N+](=O)[O-] | – | 0.0513 | Ki ([6]; read-out: Ki): 0.0902 µM; Ki ([8]; read-out: Ki): 0.0051 µM
COc1ccccc1N1CCN(CCOc2ccc3nc[nH]c3c2)CC1 | > 1 | 0.0126 | –
COc1ccccc1N1CCN(CCOc2ccc3nn[nH]c3c2)CC1 | > 1 | 0.00151 | –
O=C1Cc2c(ccc(Cl)c2N2CCN(Cc3ccccc3)CC2)N1 | – | – | Ki (D(2) dopamine receptor [4]): 0.0548 µM; Ratio Ki (Rattus norvegicus): 7
S=c1[nH]c2ccc(OCCN3CCN(c4ccccc4)CC3)cc2[nH]1 | > 1 | 0.00067 | –
Cc1cccc(N2CCN(CCc3ccc4nn[nH]c4c3)CC2)c1C | – | – | Ki [2]: > 10 µM; IC50 [3]: 0.26 µM
COc1ccccc1N1CCN(CCOc2ccc3[nH]c(=O)[nH]c3c2)CC1 | > 1 | 0.0013 | –
Clc1ccc(N2CCN(CCCc3ccc4nc[nH]c4c3)CC2)cc1 | > 1 | > 1 | –
CCCN1CCC[C@@H](c2cccc(O)c2)C1 | – | – | Ratio Ki (Rattus norvegicus): 33
c1ccc(C[n+]2cc[n+](-c3cccc4[nH]cnc34)cc2)cc1 | – | – | Ki (D(2) dopamine receptor [4]): 0.0097 µM; Ki (D(3) dopamine receptor): 0.87 µM; Ki (D(4) dopamine receptor): 0.047 µM; Ki (D(2) dopamine receptor [5]): 0.107 µM; Ratio Ki (Rattus norvegicus): 11

Further lines, with some results ahead:

Ki (D(1A) dopamine receptor; read-out: Ki) [µM] | Ki (D(2) dopamine receptor [1]; read-out: Ki) [µM] | SMILES | also measured
> 1 | > 1 | COc1ccc(N2CCN(CCOc3ccc4[nH]c(=O)[nH]c4c3)CC2)cc1 | –
> 1 | 0.0058 | FC(F)(F)c1cccc(N2CCN(CCCc3ccc4[nH]c(=S)[nH]c4c3)CC2)c1 | –
> 1 | > 1 | FC(F)(F)c1cccc(N2CCN(CCOc3ccc4nc[nH]c4c3)CC2)c1 | –
> 1 | > 1 | O=c1[nH]c2ccc(OCCN3CCN(c4ccc(Cl)cc4)CC3)cc2[nH]1 | –
> 1 | > 1 | COc1cccc(N2CCN(CCOc3ccc4nc[nH]c4c3)CC2)c1 | –
> 1 | 0.00019 | COc1ccccc1N1CCN(CCOc2ccc3[nH]c(=S)[nH]c3c2)CC1 | –
> 1 | 0.097 | COc1ccccc1N1CCN(CCCc2ccc3nc[nH]c3c2)CC1 | –
> 1 | 0.0004 | COc1ccccc1N1CCN(CCCc2ccc3[nH]c(=S)[nH]c3c2)CC1 | –
